The values that follow are results of earlier work, collected in patent publication US7196163B2, “Assays using amyloid precursor proteins with modified β-secretase cleavage sites to monitor β-secretase activity” (Merk & Co., Inc., priority 2001, dated 2007).

The test system of the data set is Cultured cells. The settings on record: cultured cells expressing cDNA encoding APP; cited from earlier work.

Turning to “NLDA (Swedish): APP Swedish mutant, NLDA at the β-secretase cleavage site”, the “Aβ produced relative to cells expressing wild-type APP” value was 6–8 fold.
